Target: T1, wild type androgen receptor (Homo sapiens, UniProt P10275)
T1 construct: expressed in transfected cells; host or cells: A549, transduced, puromycin selected
T1 sequence (P10275 1-920): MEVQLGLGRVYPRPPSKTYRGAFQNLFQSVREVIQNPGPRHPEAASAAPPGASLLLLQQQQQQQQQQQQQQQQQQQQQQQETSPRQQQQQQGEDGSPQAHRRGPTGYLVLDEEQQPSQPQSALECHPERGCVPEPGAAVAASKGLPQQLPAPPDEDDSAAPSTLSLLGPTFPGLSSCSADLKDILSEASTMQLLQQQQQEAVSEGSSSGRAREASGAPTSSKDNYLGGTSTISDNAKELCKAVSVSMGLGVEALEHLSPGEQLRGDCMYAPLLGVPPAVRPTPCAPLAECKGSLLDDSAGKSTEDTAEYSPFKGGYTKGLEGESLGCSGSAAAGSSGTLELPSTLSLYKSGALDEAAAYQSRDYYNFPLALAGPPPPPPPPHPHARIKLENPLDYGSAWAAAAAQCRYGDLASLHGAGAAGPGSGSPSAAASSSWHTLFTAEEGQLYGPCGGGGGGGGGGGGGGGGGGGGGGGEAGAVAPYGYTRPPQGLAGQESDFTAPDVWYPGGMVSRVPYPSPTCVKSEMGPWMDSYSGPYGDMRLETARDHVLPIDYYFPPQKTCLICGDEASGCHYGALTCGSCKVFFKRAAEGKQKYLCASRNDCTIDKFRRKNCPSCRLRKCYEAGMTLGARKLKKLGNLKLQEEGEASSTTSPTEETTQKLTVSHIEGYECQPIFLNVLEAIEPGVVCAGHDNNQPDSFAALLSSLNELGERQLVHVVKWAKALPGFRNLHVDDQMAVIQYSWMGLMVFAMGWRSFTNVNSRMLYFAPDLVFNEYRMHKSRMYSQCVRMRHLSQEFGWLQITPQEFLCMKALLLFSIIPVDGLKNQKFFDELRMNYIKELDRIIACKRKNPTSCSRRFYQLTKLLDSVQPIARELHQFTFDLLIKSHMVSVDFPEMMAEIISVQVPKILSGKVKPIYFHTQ
Test: Degradation of overexpressed Androgen Receptor in A549 cells (HiBiT), wild type
Type: cell-based
Conditions: A549 cells overexpressing AR WT, cycloheximide, 24 hours
Description: A549 cells were transduced to express wild type androgen receptor and Androgen receptor containing the following mutations (L702H, H875Y W742C W742L F877L, T878A and T878A/H875Y) with HiBiT tags. Transduced cells following puromycin selection were maintained in a humidified incubator (at 37° C. and 5% CO2 in the DMEM medium supplemented with 1% (v/v) Pen/Strep, 1% (v/v) Glutamax and 10% (v/v) FBS. A549 cells expressing each AR construct were detached from plate and counted. Cell suspensions at density 0.2 million per mL were prepared. Cell suspension was supplemented with 100 μg/mL of cycloheximide to block protein synthesis. Cells were preincubated with cycloheximide for 1 hr before seeding. Cells were seeded onto 384-well plate at density of 5,000 in 25 μL per well. A two fold serial dilution of test compounds, starting from 1 μM (row A) in 2-fold serial dilution series across the column using Tecan D300e dispenser. […]
Nano-Glo HiBiT Lytic reagent was prepared by adding LgBiT protein and Nano-Glo® substrate to lytic buffer pre-equilibrated at room temperature following manufacturer protocol (https://www.promega.co.uk/resources/protocols/technical-manuals/101/nanoglo-luciferase-assay-system-protocol). […] The plates were then centrifuged (100×G, 1 min) and incubated on shaker for 10 mins before taking readings on Pherastar Luminescence microplate reader. […]

Summary pXC50: 8.95
SMILES: COc1cc(O[C@H]2C(C)(C)[C@H](NC(=O)c3ccc(N4CCC(CN5CCC(n6ncc7c(N8CCC(=O)NC8=O)nccc76)CC5)CC4)c(F)c3)C2(C)C)ccc1C#N [Example 20, N-((1r,3r)-3-(4-Cyano-3-methoxyphenoxy)-2,2,4,4-tetramethylcyclobutyl)-4-(4-((4-(4-(2,4-dioxotetrahydropyrimidin-1(2H)-yl)-1H-pyrazolo[4,3-c]pyridin-1-yl)piperidin-1-yl)methyl)piperidin-1-yl)-3-fluorobenzamide]
